Measurements published in patent US20160242416A1, “FUNGICIDAL ISOXAZOLINE CARBINOLS” (E I DU PONT DE NEMOURS AND COMPANY, priority 2015, published 2016).

Experiments:
Zymoseptoria tritici = experiment: Test E: wheat leaf blotch, preventive spray on wheat seedlings; details: 100 = 100% disease control; for Test E rating (% disease control): 10 ppm, wheat leaf blotch, 0 = no control
[1] = system: Erysiphe graminis f sp. tritici; experiment: Test G: wheat powdery mildew, preventive spray on wheat seedlings; details: 100 = 100% disease control; for Test G rating (% disease control): 10 ppm, wheat powdery mildew, 0 = no control
Botrytis cinerea = experiment: Test B: gray mold, preventive spray on tomato seedlings; details: 100 = 100% disease control; for Test B rating (% disease control): 10 ppm, gray mold on tomato, 0 = no control
[2] = system: Puccinia recondita f sp. tritici; experiment: Test F: wheat leaf rust, preventive spray on wheat seedlings; details: 100 = 100% disease control; for Test F rating (% disease control): 10 ppm, wheat leaf rust, 0 = no control
Stagonospora nodorum = experiment: Test D: wheat glume blotch, preventive spray on wheat seedlings; details: 100 = 100% disease control; for Test D rating (% disease control): 10 ppm, wheat glume blotch, 0 = no control
Text: General protocol for preparing test solutions for Tests A-G: the test compounds were first dissolved in acetone in an amount equal to 3% of the final volume and then suspended at the desired concentration (in ppm) in acetone and purified water (50/50 mix by volume) containing 250 ppm of the surfactant PEG400 (polyhydric alcohol esters). The resulting test suspensions were then used in Tests A-G. Compounds were sprayed at a concentration of 50 ppm (*) or 10 ppm to the point of run-off on the test plants, the equivalent of a rate of 200 g/ha or 40 g/ha, respectively.
The test solution was sprayed to the point of run-off on wheat seedlings. The following day the seedlings were inoculated with a spore suspension of Stagonospora nodorum (also known as Septoria nodorum; the causal agent of wheat glume blotch) and incubated in a saturated atmosphere at 20° C. for 48 h, and then moved to a growth chamber at 20° C. for 6 days, after which time visual disease ratings were made.
Compounds with an asterisks (*) were applied at a concentration of 50 ppm, otherwise test solutions were applied at 10 ppm.

[3] = 10 ppm test solution, 0 = no control relative to controls

| Compound | Test E rating (% disease control) (Zymoseptoria tritici) [%] | Test G rating (% disease control) [1] [%] | Test B rating (% disease control) (Botrytis cinerea) [%] | Test F rating (% disease control) [2] [%] | Test D rating (% disease control) (Stagonospora nodorum) [%] | Test E disease control rating (Zymoseptoria tritici; [3]) [%] | Test G disease control rating [1, 3] [%] | Test B disease control rating (Botrytis cinerea; [3]) [%] | Test F disease control rating [2, 3] [%] | Test D disease control rating (Stagonospora nodorum; [3]) [%] |
| --- | --- | --- | --- | --- | --- | --- | --- | --- | --- | --- |
| CC(C)(C)C(O)(Cn1cncn1)C1=NOC(COc2ccc(Cl)nc2)C1 (single isomer, unassigned) [Compound 98] | 0 | 55 | 0 | 88 | 0 |  |  |  |  |  |
| CC(C)(C)C(O)(Cn1cncn1)C1=NOC(Cc2ccc(Cl)c(Cl)c2)C1 (single isomer, unassigned) [Compound 22] | 29 | 99 | 0 | 100 | 96 |  |  |  |  |  |
| OC(Cn1cncn1)(C1=NOC(COc2ccc(F)cc2)C1)c1ccc(Cl)cc1 (single isomer, unassigned) [Compound 162] | 76 | 100 | 0 | 100 | 96 |  |  |  |  |  |
| CC(C)(C)C(O)(Cn1cncn1)C1=NOC(COc2ccc(F)cc2F)C1 (single isomer, unassigned) [Compound 21] | 0 | 99 | 9 | 100 | 100 |  |  |  |  |  |
| CC(C)(C)CC(O)(Cn1cncn1)C1=NOC(COc2ccc(Br)cc2)C1 (single isomer, unassigned) [Compound 170] | 68 | 99 | 0 | 100 | 99 |  |  |  |  |  |
| CC(C)(C)C(O)(Cn1cncn1)C1=NOC(COc2ccc(Cl)cn2)C1 (single isomer, unassigned) [Compound 96] | 5 | 99 | 85 | 100 | 100 |  |  |  |  |  |
| CCC(C)(C)C(O)(Cn1cncn1)C1=NOC(Cc2ccc(C(F)(F)F)cc2)C1 (single isomer, unassigned) [Compound 20] | 98 | 99 | 0 | 100 | 65 |  |  |  |  |  |
| OC(Cn1cncn1)(C1=NOC(Cc2ccc(Br)cc2)C1)c1ccc(Cl)cc1 (single isomer, unassigned) [Compound 54] | 0 | 99 | 0 | 100 | 87 |  |  |  |  |  |
| OC(Cn1cncn1)(C1=NOC(Cc2ccc(Cl)cc2)C1)c1ccc(Cl)cc1 (single isomer, unassigned) [Compound 201] | 1 | 96 | 0 | 100 | 50 |  |  |  |  |  |
| CC(C)(C)C(O)(Cn1cncn1)C1=NOC(Cn2ccc(C(F)(F)F)n2)C1 (single isomer, unassigned) [Compound 48] | 0 | 99 | 0 | 99 | 94 |  |  |  |  |  |
| CCC(C)(C)C(O)(Cn1cncn1)C1=NOC(COc2ccc(Cl)cc2)C1 (single isomer, unassigned) [Compound 186] | 66 | 100 | 99 | 100 | 100 |  |  |  |  |  |
| OC(Cn1cncn1)(C1=NOC(c2ccc(Cl)cc2)C1)c1ccc(Br)cc1 (single isomer, unassigned) [Compound 181] | 0 | 69 | 0 | 45 | 0 |  |  |  |  |  |
| CCC(C)(C)C(O)(Cn1cncn1)C1=NOC(Cc2ccc(Cl)cc2)C1 (single isomer, unassigned) [Compound 18] | 6 | 99 | 0 | 100 | 87 |  |  |  |  |  |
| CCC(C)(C)C(O)(Cn1cncn1)C1=NOC(COc2ccc(Br)cc2)C1 (single isomer, unassigned) [Compound 12] | 57 | 96 | 0 | 99 | 68 |  |  |  |  |  |
| CC(C)(C)C(O)(Cn1cncn1)C1=NOC(COc2ccc(C(F)(F)F)cc2)C1 (single isomer, unassigned) [Compound 81] | 95 | 100 | 57 | 100 | 100 |  |  |  |  |  |
| CC(C)(C)C(O)(Cn1cncn1)C1=NOC(Cc2ccc(Br)cc2)C1 (single isomer, unassigned) [Compound 52] | 4 | 100 | 98 | 100 | 100 |  |  |  |  |  |
| CC(C)(C)CC(O)(Cn1cncn1)C1=NOC(Cc2ccc(C(F)(F)F)cc2)C1 (single isomer, unassigned) [Compound 227] |  |  |  |  |  | 29 | 100 | 0 | 100 | 73 |
| CC(C)(C)C(O)(Cn1cncn1)C1=NOC(COc2ccc(OCc3ccccc3)cc2)C1 (single isomer, unassigned) [Compound 71] | 1 | 94 | 0 | 26 | 0 |  |  |  |  |  |
| CC(C)(C)CC1CC(C(O)(Cn2cncn2)c2ccc(Cl)cc2)=NO1 (single isomer, unassigned) [Compound 75] | 0 | 97 | 0 | 90 | 58 |  |  |  |  |  |
| OC(Cn1cncn1)(C1=NOC(c2ccc(Cl)cc2)C1)c1cccc(Oc2ccccc2)c1 (single isomer, unassigned) [Compound 110] | 72 | 48 | 0 | 21 | 0 |  |  |  |  |  |
| CC(C)(C)C(O)(Cn1cncn1)C1=NOC(COC2CCCCC2)C1 (single isomer, unassigned) [Compound 91] | 2 | 56 | 0 | 0 | 20 |  |  |  |  |  |
| CC(C)(C)C(O)(Cn1cncn1)C1=NOC(COc2ccc(Cl)cn2)C1 (single isomer, unassigned) [Compound 95] | 0 | 100 | 100 | 100 | 100 |  |  |  |  |  |
| CC(C)(C)C(O)(Cn1cncn1)C1=NOC(CSc2ccccc2)C1 (single isomer, unassigned) [Compound 74] | 13 | 56 | 44 | 0 | 0 |  |  |  |  |  |
| CC(C)(C)C(O)(Cn1cncn1)C1=NOC(COc2ccc(I)cc2)C1 (single isomer, unassigned) [Compound 184] | 94 | 100 | 44 | 100 | 100 |  |  |  |  |  |
